Measured values taken from patent US20190055576A1, “USE OF HERBICIDE-TOLERANT PROTEIN” (BEIJING DABEINONG TECHNOLOGY GROUP CO., LTD., priority 2016, published 2019).

System: transgenic soybean plants (Gm cytoplasmic/chloroplastic ALT-1-01, ALT-2-01, ALT-3-01)
Experiment: Sulfometuron-methyl tolerance of transgenic soybean plants, damage degree by leaf curl and growth point damage
Assay type: in vivo
Settings: 120 g ai/ha; for Average damage % 3DAT / Average damage % 7DAT / Average damage % 14DAT / Average damage % 21DAT: 4-fold field concentration; for Average damage % 3DAT: 3 days after spraying; for Average damage % 7DAT: 7 days after spraying; for Average damage % 14DAT: 14 days after spraying; for Average damage % 21DAT: 21 days after spraying
Excerpt: The herbicide tolerance effects of Gm cytoplasmic ALT-1-01 soybean plants, Gm chloroplastic ALT-1-01 soybean plants, Gm cytoplasmic ALT-2-01 soybean plants, Gm chloroplastic ALT-2-01 soybean plants, Gm cytoplasmic ALT-3-01 soybean plants, Gm chloroplastic ALT-3-01 soybean plants and wild-type soybean plants on Sulfometuron-methyl were detected (at seedling stage), respectively.
Gm cytoplasmic ALT-1-01 soybean plants, Gm chloroplastic ALT-1-01 soybean plants, Gm cytoplasmic ALT-2-01 soybean plants, Gm chloroplastic ALT-2-01 soybean plants, Gm cytoplasmic ALT-3-01 soybean plants, Gm chloroplastic ALT-3-01 soybean plants and wild-type soybean plants were respectively taken and sprayed with Sulfometuron-methyl (120 g ai/ha, 4-fold field concentration) and a blank solvent (water). The damage degree caused by the herbicide was measured for each plant according to the leaf curl degree and the growth point damage degree 3 days after spraying (3 DAT), 7 days after spraying (7 DAT), 14 days after spraying (14 DAT) and 21 days after spraying (21 DAT), respectively: considering conditions of leaves being flat as the untreated plants and growth points being intact as having a damage degree of 0%; considering conditions of veins being locally browned, new leaves being malformed and plant growth being slow as having a damage degree of 50%; and considering conditions of veins being purple to whole plant being dead and growth points being browned and dry as having a damage degree of 100%. There were 2 strains in Gm cytoplasmic ALT-1-01 soybean plants in total (S1 and S2), 2 strains in Gm chloroplastic ALT-1-01 soybean plants in total (S3 and S4), 2 strains in Gm cytoplasmic ALT-2-01 soybean plants in total (S5 and S6), 2 strains in Gm chloroplastic ALT-2-01 soybean plants in total (S7 and S8), 2 strains in Gm cytoplasmic ALT-3-01 soybean plants in total (S9 and S10), 2 strains in Gm chloroplastic ALT-3-01 soybean plants in total (S11 and S12), and 1 strain in wild-type soybean plants (CK1) in total; and 10-15 plants were selected from each strain and tested.

[1] = strain S1 (Gm cytoplasmic ALT-1-01 soybean)
[2] = strain S2 (Gm cytoplasmic ALT-1-01 soybean)
[3] = strain S3 (Gm chloroplastic ALT-1-01 soybean)
[4] = strain S4 (Gm chloroplastic ALT-1-01 soybean)
[5] = strain S5 (Gm cytoplasmic ALT-2-01 soybean)
[6] = strain S6 (Gm cytoplasmic ALT-2-01 soybean)
[7] = strain S7 (Gm chloroplastic ALT-2-01 soybean)
[8] = strain S8 (Gm chloroplastic ALT-2-01 soybean)
[9] = strain S9 (Gm cytoplasmic ALT-3-01 soybean)
[10] = strain S10 (Gm cytoplasmic ALT-3-01 soybean)
[11] = strain S11 (Gm chloroplastic ALT-3-01 soybean)
[12] = strain S12 (Gm chloroplastic ALT-3-01 soybean)

## COC(=O)c1ccccc1S(=O)(=O)NC(=O)Nc1nc(C)cc(C)n1 [Sulfometuron-methyl, 2-(4,6-dimethylpyrimidine-2-amino-formamido-sulfonyl) methyl benzoate]
[1]
  Average damage % 3DAT: 6%
  Average damage % 7DAT: 0%
  Average damage % 14DAT: 0%
  Average damage % 21DAT: 0%
[2]
  Average damage % 3DAT: 7%
  Average damage % 7DAT: 0%
  Average damage % 14DAT: 0%
  Average damage % 21DAT: 0%
[3]
  Average damage % 3DAT: 0%
  Average damage % 7DAT: 0%
  Average damage % 14DAT: 0%
  Average damage % 21DAT: 0%
[4]
  Average damage % 3DAT: 0%
  Average damage % 7DAT: 0%
  Average damage % 14DAT: 0%
  Average damage % 21DAT: 0%
[5]
  Average damage % 3DAT: 6%
  Average damage % 7DAT: 0%
  Average damage % 14DAT: 0%
  Average damage % 21DAT: 0%
[6]
  Average damage % 3DAT: 5%
  Average damage % 7DAT: 0%
  Average damage % 14DAT: 0%
  Average damage % 21DAT: 0%
[7]
  Average damage % 3DAT: 0%
  Average damage % 7DAT: 0%
  Average damage % 14DAT: 0%
  Average damage % 21DAT: 0%
[8]
  Average damage % 3DAT: 0%
  Average damage % 7DAT: 0%
  Average damage % 14DAT: 0%
  Average damage % 21DAT: 0%
[9]
  Average damage % 3DAT: 8%
  Average damage % 7DAT: 0%
  Average damage % 14DAT: 0%
  Average damage % 21DAT: 0%
[10]
  Average damage % 3DAT: 7%
  Average damage % 7DAT: 0%
  Average damage % 14DAT: 0%
  Average damage % 21DAT: 0%
[11]
  Average damage % 3DAT: 0%
  Average damage % 7DAT: 0%
  Average damage % 14DAT: 0%
  Average damage % 21DAT: 0%
[12]
  Average damage % 3DAT: 0%
  Average damage % 7DAT: 0%
  Average damage % 14DAT: 0%
  Average damage % 21DAT: 0%
Transgenic soybean plants
  herbicide tolerance conferred by the thifensulfuron hydrolase (ALT-1, ALT-2 and ALT-3): conferred a high level of Sulfometuron-methyl herbicide tolerance
